Reference: article PMC9610855, “Valorisation of the Inhibitory Potential of Fresh and Dried Fruit Extracts of Prunus spinosa L. towards Carbohydrate Hydrolysing Enzymes, Protein Glycation, Multiple Oxidants and Oxidative Stress-Induced Changes in Human Plasma Constituents” (Pharmaceuticals, 2022)

Tests used:
[1] = NO^• scavenging; conditions: mean ± SD of three replicates
Protocol: (§1) The scavenging efficiency of P. spinosa fruit extracts/fractions towards various ROS (O2^•−, HO^•, H2O2, HOCl, and NO^•) was tested using appropriate fluorimetric and spectrophotometric methods as described previously. Ascorbic acid and Trolox® served as positive controls. The results were expressed as half scavenging concentration (SC50) values, estimated using concentration-scavenging curves.

[2] = O2^•− scavenging; conditions: mean ± SD of three replicates
Protocol: as §1

[3] = H2O2 scavenging; conditions: mean ± SD of three replicates
Protocol: as §1

[4] = HOCl scavenging; conditions: mean ± SD of three replicates
Protocol: as §1

[5] = HO^• scavenging; conditions: mean ± SD of three replicates
Protocol: as §1

[6] = test system: human neutrophils; set-up: method as in PMID 35630778; conditions: 50 μM; cited from earlier work
[7] = test system: AGEs formation (protein glycation, fructose-BSA); experiment: inhibition of AGEs formation, fructose-bovine serum albumin (BSA) test system; conditions: mean ± SD (n = 3)
Protocol: The impact of the extracts/fractions on protein glycation was evaluated in the fructose-bovine serum albumin (BSA) test system with aminoguanidine as a positive control according to the fluorimetric method of Starowicz and Zieliński, modified by Rutkowska et al.. The fluorescence was measured at 37 °C in a microplate reader at 355 nm and 420 nm for excitation and emission, respectively. The results were reported as half inhibitory concentration (IC50) values, estimated using concentration-inhibition curves.

[8] = target: α-glucosidase; experiment: α-glucosidase inhibition assay (p-NPG hydrolysis, spectrophotometric); assay type: biochemical; conditions: mean ± SD (n = 3)
Protocol: The inhibition of α-glucosidase was evaluated according to the spectrophotometric method reported by Ma et al. with slight modifications. The enzyme activity measurement was based on the p-nitrophenyl-α-D-glucopyranoside (p-NPG) hydrolysis. In brief, 150 µL of a phosphate buffer (0.1 M, pH 6.9) solution of an extract or standard was mixed with the enzyme (0.43 U/mL, 50 µL) and pre-incubated for 15 min at 37 °C. Next, a 0.7 mM p-NPG solution in the buffer (50 µL) was added, and after 15 min of incubation, the reaction was stopped by adding Na2CO3 (0.2 M, 50 µL). Finally, the absorbance was read at 405 nm in a microplate reader. […] The inhibitory potential of the analytes towards α-glucosidase was expressed as a half inhibitory concentration (IC50), calculated from concentration-inhibition curves.

[9] = test system: human plasma lipids (TBARS); experiment: lipid peroxidation (TBARS) in human plasma exposed to ONOO^−; conditions: 5 μg/mL, compared with the other standard polyphenols
Protocol: Therefore, to check the potential preventive effects of P. spinosa fruit extracts against oxidative and nitrative injury of biomolecules, an experimental model of human blood plasma exposed to oxidative stress induced by ONOO^− (100–150 μM; achievable locally in vivo, e.g., in inflamed blood vessels) was applied. The process was monitored by measuring the oxidative stress biomarkers, including the products of protein nitration (3-nitrotyrosine, 3-NT), lipid peroxidation (thiobarbituric acid reactive substances, TBARS), as well as the total antioxidant capacity of plasma (NEAC). The extracts and fractions from fresh sloes were selected for the study due to their high ability to inhibit glycolytic enzymes, potent anti-glycation activity, and significant ROS/RNS-scavenging properties. […] The influence on the levels of oxidative stress biomarkers in plasma was evaluated using the appropriate immunoenzymatic and spectrophotometric methods. […] The results were calculated using the standard curve of nitro-fibrinogen (3-NT-Fg) and expressed as 3-NT-Fg equivalents (nmol/mg of plasma proteins). The TBARS levels of plasma lipids were determined spectrophotometrically and calculated in nmol/mL of plasma. The impact on the NEAC value was measured using the FRAP assay, with the results calculated from the standard curve of ferrous sulphate and expressed in mM of Fe^2+ equivalents.

[10] = target: T1, α-amylase (Sus scrofa, UniProt P00690); experiment: α-amylase inhibition assay (EnzChek Ultra Amylase Assay Kit, fluorometric); assay type: biochemical; conditions: mean ± SD (n = 3)
T1 construct: pancreatin from porcine pancreas; purchased Sigma-Aldrich; host or cells: porcine pancreas extract (pancreatin)
T1 sequence (P00690 16-511): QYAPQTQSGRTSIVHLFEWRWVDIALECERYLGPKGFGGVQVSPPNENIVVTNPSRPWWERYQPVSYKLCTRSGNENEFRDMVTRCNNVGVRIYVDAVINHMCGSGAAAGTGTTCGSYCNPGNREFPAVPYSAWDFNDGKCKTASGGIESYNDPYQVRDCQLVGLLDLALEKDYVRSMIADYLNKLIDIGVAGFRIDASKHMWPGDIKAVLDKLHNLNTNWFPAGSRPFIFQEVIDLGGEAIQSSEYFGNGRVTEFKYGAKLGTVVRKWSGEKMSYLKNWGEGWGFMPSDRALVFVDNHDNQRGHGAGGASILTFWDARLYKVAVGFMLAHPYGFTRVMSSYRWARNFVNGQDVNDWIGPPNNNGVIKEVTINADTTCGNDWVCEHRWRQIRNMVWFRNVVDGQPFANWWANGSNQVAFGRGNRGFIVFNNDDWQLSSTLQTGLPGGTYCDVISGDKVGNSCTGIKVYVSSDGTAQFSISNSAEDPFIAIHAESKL
Protocol: The inhibitory activity of the analytes towards α-amylase was determined fluorometrically according to Truba et al. using an EnzChek™ Ultra Amylase Assay Kit. The test was based on measuring products formed after the enzymatically catalysed hydrolysis of the corn starch substrate DQTM (labeled with the fluorescent dye BODIPY® FL). The fluorescence of the hydrolysate was read at 37 °C in a microplate reader at 485 nm and 535 nm for excitation and emission, respectively. […] The inhibitory potential of the analytes towards α-amylase was expressed as a half inhibitory concentration (IC50), calculated from concentration-inhibition curves.

| SMILES | Scavenging activity (SC50) NO^• [1] | Scavenging activity (SC50) O2^•− [2] | Scavenging activity (SC50) H2O2 [3] | Scavenging activity (SC50) HOCl [4] | Scavenging activity (SC50) HO^• [5] | downregulation (reduction) of the ROS level in human neutrophils [6] [%] | AGEs Formation IC50 [7] | α-Glucosidase IC50 [8] | activity of model polyphenol in the TBARS test [9] | α-Amylase IC50 [10] | IC50 [10] [µM] |
| --- | --- | --- | --- | --- | --- | --- | --- | --- | --- | --- | --- |
| Cc1c(C)c2c(c(C)c1O)CCC(C)(C(=O)O)O2 (stereo not shown) [Trolox] | 0.59 ± 0.02 ^A µg/mL | 135.33 ± 5.59 ^F µg/mL | 0.020 ± 0.001 ^B mg/mL | 21.49 ± 1.21 ^C µg/mL | 0.13 ± 0.003 ^B,C mg/mL |  |  |  |  |  |  |
| O=c1c(O)c(-c2ccc(O)c(O)c2)oc2cc(O)cc(O)c12 [Quercetin, quercetin] | 0.48 ± 0.03 ^A µg/mL | 7.89 ± 0.24 ^A µg/mL | 0.008 ± 0.001 ^A mg/mL | 2.08 ± 0.14 ^A µg/mL | 0.05 ± 0.002 ^A mg/mL | 96 |  |  |  |  |  |
| N=C(N)NN [Aminoguanidine, aminoguanidine] |  |  |  |  |  |  | 78.89 ± 4.95 ^C µg/mL |  |  |  |  |
| OC[C@H]1O[C@@H](Oc2cc3c(O)cc(O)cc3[o+]c2-c2ccc(O)c(O)c2)[C@H](O)[C@@H](O)[C@@H]1O [Cyanidin 3-O-glucoside, cyanidin 3-O-β-D-glucopyranoside] | 1.40 ± 0.09 ^B µg/mL | 10.11 ± 0.33 ^A µg/mL | 0.012 ± 0.001 ^A,B mg/mL | 5.62 ± 0.11 ^A µg/mL | 0.17 ± 0.002 ^C mg/mL |  | 10.90 ± 0.85 ^A µg/mL | 635.13 ± 34.43 ^H µg/mL | especially active | 31.28 ± 1.66 ^B µg/mL |  |
| O=C(/C=C/c1ccc(O)c(O)c1)O[C@@H]1C[C@](O)(C(=O)O)C[C@@H](O)[C@H]1O [Chlorogenic acid, 5-O-caffeoylquinic acid] |  |  |  |  |  |  | 7.07 ± 0.74 ^A µg/mL |  |  |  | 229 |
| O=Cc1ccc(CO)o1 [5-Hydroxymethylfurfural (HMF), 5-hydroxymethylfurfural] | ** (inactive up to a concentration of 500 µg/mL) | ** (inactive up to a concentration of 500 µg/mL) | *** (inactive up to 1500 µg/mL) | ** (inactive up to a concentration of 500 µg/mL) | *** (inactive up to 1500 µg/mL) | 15 |  | ** (inactive up to 1000 µg/mL) |  |  |  |
| O=c1c(O[C@@H]2O[C@H](CO)[C@@H](O)[C@H](O)[C@H]2O)c(-c2ccc(O)c(O)c2)oc2cc(O)cc(O)c12 [Quercetin 3-O-glucoside (isoquercitrin), quercetin 3-O-β-D-glucopyranoside] |  |  |  |  |  |  | 3.09 ± 0.17 ^A µg/mL | 209.64 ± 5.64 ^G µg/mL |  |  |  |
| O=C1O[C@H]([C@@H](O)CO)C(O)=C1O [Ascorbic acid, ascorbic acid] | 0.59 ± 0.04 ^A µg/mL | 5.28 ± 0.25 ^A µg/mL | 0.014 ± 0.001 ^A,B mg/mL | 6.32 ± 0.07 ^A µg/mL | 0.14 ± 0.005 ^B,C mg/mL |  |  |  |  |  |  |
